The results in this text go back to US20220280661A1, “GLUCOCORTICOID RECEPTOR RADIOLIGANDS AND METHODS FOR THEIR PREPARATION AND USE” (The Regents of the University of California, priority 2019, published 2022).

One may read the Kd as a measure of binding affinity in units of concentration. Higher therefore signals lower affinity.

The target in this assay is T1, ER (Homo sapiens, UniProt P03372).
T1 construct: MCF7 (PR, ER); endogenous in cells; host or cells: MCF7
T1 sequence (P03372 1-595): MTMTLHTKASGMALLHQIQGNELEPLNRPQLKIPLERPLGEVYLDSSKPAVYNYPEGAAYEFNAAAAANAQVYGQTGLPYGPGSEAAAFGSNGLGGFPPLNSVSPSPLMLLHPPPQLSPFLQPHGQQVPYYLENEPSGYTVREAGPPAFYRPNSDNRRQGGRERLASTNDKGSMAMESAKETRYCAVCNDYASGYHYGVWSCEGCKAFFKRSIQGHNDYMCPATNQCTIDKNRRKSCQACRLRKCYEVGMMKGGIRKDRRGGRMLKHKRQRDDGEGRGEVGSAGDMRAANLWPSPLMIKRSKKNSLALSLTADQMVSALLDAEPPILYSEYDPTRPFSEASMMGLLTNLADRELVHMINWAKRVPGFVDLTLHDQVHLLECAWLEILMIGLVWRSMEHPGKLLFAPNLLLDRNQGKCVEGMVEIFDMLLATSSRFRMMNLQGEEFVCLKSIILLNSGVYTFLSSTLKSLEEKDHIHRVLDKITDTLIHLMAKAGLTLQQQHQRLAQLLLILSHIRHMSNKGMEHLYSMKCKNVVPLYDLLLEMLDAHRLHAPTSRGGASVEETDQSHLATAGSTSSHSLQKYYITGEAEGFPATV
The experiment in a line: 3H-ligand displacement assay on cells, ER (MCF7). The assay is classed as binding. As to the method:
The affinity of YJH08 for GR and the other type 1 subfamily 3 nuclear hormone receptors was evaluated using ^3H-ligand displacement assays on cells. The Kd for subfamily 3 class C nuclear hormone receptors was determined on cells by displacing ^3H-steroidal agonists for the respective receptor. […] The Kd was determined using the following cell lines: DU145 (GR), LNCaP-AR (AR), MCF7 (PR, ER), and HEK293 transiently overexpressing full length human MR.
The cold ligands and ^3H-steroids were co-incubated on cells in PBS at room temperature for one hour. Following incubation, the cells were washed twice with ice cold PBS and the unbound activity was retained for analysis. The cells were lysed with 1 mL of 1M NaOH and collected. Bound and unbound fractions were counted in a liquid scintillation counter and expressed as a percentage of the total activity added per equal relative number of cells. […] These experiments were performed at three concentrations of experimental ligand (1 pM, 100 nM and 10 μM), and a linear extrapolation was used to subtract the non-specific component of binding from each treatment condition. The specific binding component was plotted against the log of the competing ligand and curve fit using a non-linear regression algorithm with PRISM software.

In turn, `COc1cccc2c1-c1ccc3c(c1C(Cc1ccc(F)cc1)O2)C(C)=CC(C)(C)N3` (racemic) [YJH08, 5-(4-fluorobenzyl)-10-methoxy-2,2,4-trimethyl-2,5-dihydro-1H-chromeno[3,4-f]quinoline] returned a Kd of 19 µM.
